From patent publication US7468392B1, “Anti-fatigue cyclohexenone compounds from antrodia camphorata” (Golden Biotechnology Corporation, priority 2007, dated 2008)
Entries after “also recorded” stand apart in the source; their conditions may differ.

Key:
Assay type in all cases: in vivo, human
healthy male volunteers [1] = assay: Lactate levels in blood before/after exhaustive exercise at 80% VO2max; conditions: for blood lactate levels: plasma, Mean, n = 15; for effect of supplementation after exercise on metabolism of blood lactate: exhaustive exercise at 80% VO2max, versus placebo
Experimental: (§1) The present invention is based on supplementing cyclohexenone of Antrodia camphorata or placebo with no cyclohexenone of Antrodia camphorata to the subjects. The subjects were tested for the anti-fatigue function after supplementing cyclohexenone of Antrodia camphorata by measuring the amounts of fatigue indexes such as CPK, lactic acid, glucose, ammonia and free fatty acid before and after exhaustive exercise load at 80% VO2max.
(§2) Subjects were randomized to receive either cyclohexenone of Antrodia camphorata or placebo. Placebo contained substances such as cornstarch but no cyclohexenone of Antrodia camphorata. A double-blind, cross-over method was performed in this study where neither the evaluator nor the subject knew the content of the test substances. Based on rules of order balance, each subject have to receive the following tests: relaxing and receiving placebo (PR), exercising and receiving placebo (PE), relaxing and receiving cyclohexenone of Antrodia camphorata (DR), and exercising and receiving cyclohexenone of Antrodia camphorata (DE). Each test was carried out for one week, and took one week off before the next test until all 4 tests were performed in each subject. The exercise was performed on a treadmill with the load intensity at the measured 80% VO2max (7.61±1.87) until exhausted. Subjects received cyclohexenone of Antrodia camphorata or placebo after exercise in the amount of 0.2 g/kg body weight per day. […] Blood was collected in anticoagulant (such as EDTA) containing collection tubes, and was centrifuged at 3000 g. for 10 min to collect the plasma. The fatigue indexes such as CPK, lactic acid, glucose, ammonia and free fatty acid were analyzed accordingly. The physiological and biochemical changes before and after exercise with different supplements were compared and shown as values of mean and standard error (Mean±SEM). […] The details for the biochemical analysis and results are described below:
The measurement of blood lactate was performed with an automated blood analyzer using dry chemistry method (Johnson & Johnson DT-60II) based on enzyme function and spectrophotometric theory. Lactate oxidase was added into a defined amount of plasma for reaction, followed by addition of 4-aminoantipyrine and 1,7-dihydroxynaphthalene. A red product was formed through activities of peroxidase. The reactions are shown below:
The absorbance at 540 nm was measured to obtain the concentration of blood lactate.

healthy male volunteers [2] = assay: Free fatty acid levels before/after exhaustive exercise at 80% VO2max; conditions: for levels of free fatty acid: plasma, Mean, n = 15; for effect of supplementation after exercise on metabolism of free fatty acid: exhaustive exercise at 80% VO2max, versus placebo
Experimental: as §1, §2
The measurement of free fatty acid level was performed based on enzyme function and spectrophotometric theory. Acyl CoA synthetase and acyl CoA oxidase were added into a defined amount of plasma for reaction. A purple product was formed through activities of peroxidase. The reactions are shown below:
The absorbance at 550 nm was measured to obtain the concentration of free fatty acid.

healthy male volunteers [3] = assay: Creatine phosphate kinase (CPK) activity in plasma before/after exhaustive exercise at 80% VO2max; conditions: for creatine phosphate kinase levels: plasma, Mean, n = 15
Experimental: as §1, §2
The measurement of creatine phosphate kinase was performed with an automated blood analyzer Johnson & Johnson DT-60II based on enzyme function and spectrophotometric theory. Creatine phosphate […] was added into a defined amount of plasma to react, followed by addition of 4-aminoantipyrine and 1,7-dihydroxynaphthalene. A […] product was formed through peroxidase function. The absorbance at 680 nm was measured to obtain the concentration of creatine kinase.

healthy male volunteers [4] = assay: Anti-fatigue test for cyclohexenone of Antrodia camphorata (fatigue indexes overall); conditions: after exhaustive exercising at 80% VO2max, indexes CPK, lactic acid, glucose, ammonia, free fatty acid
Experimental: as §1
Subjects were randomized to receive either cyclohexenone of Antrodia camphorata or placebo. Placebo contained substances such as cornstarch but no cyclohexenone of Antrodia camphorata. A double-blind, cross-over method was performed in this study where neither the evaluator nor the subject knew the content of the test substances. Based on rules of order balance, each subject have to receive the following tests: relaxing and receiving placebo (PR), exercising and receiving placebo (PE), relaxing and receiving cyclohexenone of Antrodia camphorata (DR), and exercising and receiving cyclohexenone of Antrodia camphorata (DE). […] The exercise was performed on a treadmill with the load intensity at the measured 80% VO2max (7.61±1.87) until exhausted. […] The fatigue indexes such as CPK, lactic acid, glucose, ammonia and free fatty acid were analyzed accordingly. […]

[5] = Relax (DR), Post-exercise 0.5 h
[6] = Relax (DR), Post-exercise 120 h
[7] = Relax (DR), Post-exercise 168 h
[8] = exercise (DE), Post-exercise 0 h
[9] = exercise (DE), Post-exercise 0.5 h
[10] = exercise (DE), Post-exercise 1 h
[11] = exercise (DE), Post-exercise 2 h
[12] = exercise (DE), Post-exercise 24 h
[13] = exercise (DE), Post-exercise 48 h
[14] = exercise (DE), Post-exercise 72 h
[15] = exercise (DE), Post-exercise 120 h
[16] = exercise (DE), Post-exercise 168 h
[17] = exercise (DE), Prior to exercise
[18] = listed as cyclohexenone from Antrodia camphorata
[19] = listed as cyclohexenone of Antrodia camphorata

COC1=C(OC)C(O)C(C/C=C(\C)CC/C=C(\C)CCC=C(C)C)C(C)C1=O (stereo not shown) [cyclohexenone, 4-hydroxy-2,3-dimethoxy-6-methyl-5(3,7,11-trimethyl-dodeca-2,6,10-trienyl)-cyclohex-2-enone]
blood lactate levels (healthy male volunteers [1]; Relax (DR), Post-exercise 0 h): 2.39 mmol/L | blood lactate levels (healthy male volunteers [1]; [5]): 2.25 mmol/L | blood lactate levels (healthy male volunteers [1]; Relax (DR), Post-exercise 1 h): 3.00 mmol/L | blood lactate levels (healthy male volunteers [1]; Relax (DR), Post-exercise 2 h): 2.52 mmol/L | blood lactate levels (healthy male volunteers [1]; Relax (DR), Post-exercise 24 h): 2.26 mmol/L | blood lactate levels (healthy male volunteers [1]; Relax (DR), Post-exercise 48 h): 2.71 mmol/L | blood lactate levels (healthy male volunteers [1]; Relax (DR), Post-exercise 72 h): 2.22 mmol/L | blood lactate levels (healthy male volunteers [1]; [6]): 2.41 mmol/L | blood lactate levels (healthy male volunteers [1]; [7]): 2.41 mmol/L | blood lactate levels (healthy male volunteers [1]; Relax (DR), Prior to exercise): 2.54 mmol/L | blood lactate levels (healthy male volunteers [1]; [8]): 7.07 mmol/L | blood lactate levels (healthy male volunteers [1]; [9]): 3.20 mmol/L | blood lactate levels (healthy male volunteers [1]; [10]): 2.96 mmol/L | blood lactate levels (healthy male volunteers [1]; [11]): 2.9 mmol/L | blood lactate levels (healthy male volunteers [1]; [12]): 2.39 mmol/L | blood lactate levels (healthy male volunteers [1]; [13]): 2.77 mmol/L | blood lactate levels (healthy male volunteers [1]; [14]): 2.18 mmol/L | blood lactate levels (healthy male volunteers [1]; [15]): 2.53 mmol/L | blood lactate levels (healthy male volunteers [1]; [16]): 2.23 mmol/L | blood lactate levels (healthy male volunteers [1]; [17]): 2.50 mmol/L | effect of supplementation after exercise on metabolism of blood lactate (healthy male volunteers [1]; [18]): did not affect the metabolism of blood lactate | effect of supplementation after exercise on metabolism of blood lactate (healthy male volunteers [1]; [19]): no significant difference | levels of free fatty acid (healthy male volunteers [2]; Relax (DR), Post-exercise 0 h): 0.33 mM | levels of free fatty acid (healthy male volunteers [2]; [5]): 0.34 mM | levels of free fatty acid (healthy male volunteers [2]; Relax (DR), Post-exercise 1 h): 0.3 mM | levels of free fatty acid (healthy male volunteers [2]; Relax (DR), Post-exercise 2 h): 0.23 mM | levels of free fatty acid (healthy male volunteers [2]; Relax (DR), Post-exercise 24 h): 0.28 mM | levels of free fatty acid (healthy male volunteers [2]; Relax (DR), Post-exercise 48 h): 0.29 mM | levels of free fatty acid (healthy male volunteers [2]; Relax (DR), Post-exercise 72 h): 0.31 mM | levels of free fatty acid (healthy male volunteers [2]; [6]): 0.48 mM | levels of free fatty acid (healthy male volunteers [2]; [7]): 0.28 mM | levels of free fatty acid (healthy male volunteers [2]; Relax (DR), Prior to exercise): 0.38 mM | levels of free fatty acid (healthy male volunteers [2]; [8]): 0.91 mM | levels of free fatty acid (healthy male volunteers [2]; [9]): 0.6 mM | levels of free fatty acid (healthy male volunteers [2]; [10]): 0.61 mM | levels of free fatty acid (healthy male volunteers [2]; [11]): 0.59 mM | levels of free fatty acid (healthy male volunteers [2]; [12]): 0.41 mM | levels of free fatty acid (healthy male volunteers [2]; [13]): 0.28 mM | levels of free fatty acid (healthy male volunteers [2]; [14]): 0.44 mM | levels of free fatty acid (healthy male volunteers [2]; [15]): 0.3 mM | levels of free fatty acid (healthy male volunteers [2]; [16]): 0.32 mM | levels of free fatty acid (healthy male volunteers [2]; [17]): 0.34 mM | effect of supplementation after exercise on metabolism of free fatty acid (healthy male volunteers [2]; [18]): did not affect the metabolism of free fatty acid | effect of supplementation after exercise on metabolism of free fatty acid (healthy male volunteers [2]; [19]): no significant difference | creatine phosphate kinase levels (healthy male volunteers [3]; Relax (DR), Post-exercise 0 h): 150.20 U/L | creatine phosphate kinase levels (healthy male volunteers [3]; [5]): 166.53 U/L | creatine phosphate kinase levels (healthy male volunteers [3]; Relax (DR), Post-exercise 1 h): 167.40 U/L | creatine phosphate kinase levels (healthy male volunteers [3]; Relax (DR), Post-exercise 2 h): 146.33 U/L | creatine phosphate kinase levels (healthy male volunteers [3]; Relax (DR), Post-exercise 24 h): 158.47 U/L | creatine phosphate kinase levels (healthy male volunteers [3]; Relax (DR), Post-exercise 48 h): 133.87 U/L | creatine phosphate kinase levels (healthy male volunteers [3]; Relax (DR), Post-exercise 72 h): 165.73 U/L | creatine phosphate kinase levels (healthy male volunteers [3]; [6]): 243.00 U/L | creatine phosphate kinase levels (healthy male volunteers [3]; [7]): 183.27 U/L | creatine phosphate kinase levels (healthy male volunteers [3]; Relax (DR), Prior to exercise): 167.27 U/L | creatine phosphate kinase levels (healthy male volunteers [3]; [8]): 259.57 U/L | creatine phosphate kinase levels (healthy male volunteers [3]; [9]): 221.86 U/L | creatine phosphate kinase levels (healthy male volunteers [3]; [10]): 232.93 U/L | creatine phosphate kinase levels (healthy male volunteers [3]; [11]): 208.07 U/L | creatine phosphate kinase levels (healthy male volunteers [3]; [12]): 332.50 U/L | creatine phosphate kinase levels (healthy male volunteers [3]; [13]): 244.00 U/L | creatine phosphate kinase levels (healthy male volunteers [3]; [14]): 193.86 U/L | creatine phosphate kinase levels (healthy male volunteers [3]; [15]): 193.86 U/L | creatine phosphate kinase levels (healthy male volunteers [3]; [16]): 204.83 U/L | creatine phosphate kinase levels (healthy male volunteers [3]; [17]): 226.64 U/L | effect of supplementation after exercise on creatine phosphate kinase levels (healthy male volunteers [3]; exhaustive exercise at 80% VO2max, 0.2 g/kg body weight per day, versus placebo, listed as cyclohexenone from Antrodia camphorata): effectively decreases the muscular injury marker of creatine phosphate kinase levels; also recorded: significant effect (p<0.05) in metabolism of creatine phosphate kinase | anti-fatigue function (physiological fatigue after exercise) (healthy male volunteers [4]; listed as 4-hydroxy-2,3-dimethoxy-6-methyl-5(3,7,11-trimethyl-dodecca-2,6,10-trienyl)-cycl): can be used to delay physiological fatigue after exercise | anti-fatigue function (physiological fatigue after exercise) (healthy male volunteers [4]; listed as cyclohexenone from Antrodia camphorea): delays physiological fatigue
